# Experimental data published in patent US20250115943A1, “SYSTEM AND METHOD FOR ANTIMICROBIAL SUSCEPTIBILITY TESTING” (priority 2023, published 2025).
# Read-outs that look alike come from different tables or passages of the source.
# What was measured:
# [1] = test system: E. coli ATCC 25922; test: CytoSPAR BLAST antibiotic susceptibility test; assay type: cell-based; conditions: for MIC: Escherichia coli; for S, I, R: susceptible, intermediate, resistant category
# Description: (§1) The disclosed technology, which is referred to as the CytoSPAR BLAST (Bacteria Labeling Antibiotic Susceptibility Test) system, is used to quantitatively assess bacterial minimal inhibitory concentration of antibiotics for in vitro susceptibility testing. Used as an aid in diagnosis for clinicians in determining potential treatment options for patients suspected of having a microbial infection, BLAST is intended to determine susceptibility of microorganisms to the listed antibiotics (or other antimicrobials) according to manufacturer's standards. The system is intended for use with clinical isolates from liquid culture and colonies grown on agar (solid medium) or directly from urine samples. Certain implementations of BLAST determine antibiotic susceptibility for a wide range of bacteria obtained from various types of patient samples, including samples from individuals suffering from urinary tract infections. The disclosed technology includes a high-throughput assay that directly detects bacterial susceptibility to a library of frequently used antibiotics and covers both Gram-negative and Gram-positive bacteria.
# (§2) The test incorporates a non-canonical amino acid (ncAA) into newly produced proteins. The incorporated ncAA includes a reactive group which allows a specific modification and detection of the living bacteria. The assay involves bacterial incorporation of the ncAA, a chemical reaction between a reactive group and a fluorophore-tagged ligand, and detection of the newly fluorescent-tagged bacteria using a fluorescent plate reader or functionally similar device. The ncAA is added to bacterial growth media and is incorporated into newly synthesized bacterial proteins. The reactive groups on the ncAA are not naturally found in bacteria and act as a specific reactive group for bacteria undergoing active protein synthesis. […] The entire process is performed in a microtiter filter plate for high-throughput scale-up. Alternatively, a normal 96-well plate can also be used in which case centrifugation is used to wash the plate instead of filtration.
# (§3) In an example embodiment, bacterial samples are first diluted and incubated in acclimatization media. After treatment with one or more antimicrobials, the ncAA is added and is taken up by living bacteria during protein biosynthesis in a process called labeling. […] The Click-Chemistry reaction between the alkyne group of the ncAA and the azide group of the fluorophore-tagged ligand requires the presence of copper in the reduced state-copper (I). In other implementations, the functional groups of the click chemistry reaction can be changed so that the ncAA has the azide group and the dye has the alkyne group. […] Other reducing agents may be used in the BLAST assay, for example, aldoses (sugars) including glyceraldehyde, glucose, and ribose to replace sodium ascorbate. Likewise, alternate chelators may be used (e.g., histidine in place of BTTAA). In some implementations, metal-free click chemistry reactions are performed without using copper.
# (§4) Using the BLAST system, tests can be performed on isolates or direct urine samples. Isolates may be from urine, blood, or other body fluids. Isolated bacteria may be either Gram-positive or Gram-negative. In an example implementation, living bacterial samples in acclimatization media (Buffer A) are distributed in a microtiter filter plate, wherein certain predetermined wells include antibiotics of interest at different concentrations. These antibiotics are arrayed with increasing concentrations in adjacent wells so that the bacterial response can be measured against each specific concentration. The response is measured quantitatively, and a value that corresponds to the ability of the bacteria to metabolize and grow is measured.
# [2] = test system: S. aureus ATCC 29213; test: CytoSPAR BLAST antibiotic susceptibility test; assay type: cell-based; conditions: for S, I, R: susceptible, intermediate, resistant category; for MIC: Staphylococcus aureus
# Description: as §1, §2, §3, §4
# [3] = test system: S. aureus ATCC 29213; conditions: CLSI M100-Ed34E; cited from earlier work
# [4] = test system: E. coli LSI 770; test: CytoSPAR BLAST antibiotic susceptibility test; assay type: cell-based; conditions: for S, I, R: susceptible, intermediate, resistant category; for MIC: Escherichia coli
# Description: as §1, §2, §3, §4
# [5] = test system: K. pneumoniae LSI 4552; test: CytoSPAR BLAST antibiotic susceptibility test; assay type: cell-based; conditions: for MIC: Klebsiella pneumoniae, LSI4552, Table 7; for S, I, R: susceptible, intermediate, resistant category
# Description: as §1, §2, §3, §4
# [6] = test system: K. pneumoniae LSI CT1045; test: CytoSPAR BLAST antibiotic susceptibility test; assay type: cell-based; conditions: for S, I, R: susceptible, intermediate, resistant category
# Description: as §1, §2, §3, §4
# [7] = test system: P. mirabilis LSI 4698; test: CytoSPAR BLAST antibiotic susceptibility test; assay type: cell-based; conditions: for MIC: Proteus mirabilis, LSI4698, Table 7; for S, I, R: susceptible, intermediate, resistant category
# Description: as §1, §2, §3, §4
# [8] = test system: P. mirabilis LSI 4933; test: CytoSPAR BLAST antibiotic susceptibility test; assay type: cell-based; conditions: for MIC: Proteus mirabilis, LSI4933, Table 7; for S, I, R: susceptible, intermediate, resistant category
# Description: as §1, §2, §3, §4
# [9] = test system: E. coli LSI 770; test: reference broth microdilution (rBMD); assay type: cell-based; conditions: for MIC: Escherichia coli, LSI770
# Method: (§5) Following optimization of the BLAST assay, two other tests were performed in which 12 antibiotics (covering different classes) and 8 bacterial strains (Gram-positive and Gram-negative) were assayed using the same method as described above. Different bacterial strains were tested against different antibiotics and for each pair tested, the BLAST MIC value was compared to the CLSI QC range where available, or to the reference broth microdilution (rBMD) MIC which was determined in parallel with the BLAST assay following the CLSI protocols (see references [9]).
# (§6) The inoculated urine cultures were incubated overnight at 35+2° C. Each urine culture was centrifuged, and the sediment used to prepare the BLAST inoculum of 5.0×10^5 CFU/mL to start the assay as described in the protocols section. […] The spiked urine samples were tested in parallel with isolates and the resultant BLAST MIC values were compared. In addition to the BLAST test, all the samples were also tested using the reference broth microdilution (rBMD) method and the MIC values were compared.
# [10] = test system: S. aureus ATCC 29213; test: reference broth microdilution (rBMD); assay type: cell-based
# Method: as §5, §6
# [11] = test system: K. pneumoniae LSI 4552; test: reference broth microdilution (rBMD); assay type: cell-based; conditions: Klebsiella pneumoniae, LSI4552
# Method: as §5
# [12] = test system: K. pneumoniae LSI CT1045; test: reference broth microdilution (rBMD); assay type: cell-based; conditions: Klebsiella pneumoniae, LSICT1045
# Method: as §5
# [13] = test system: P. mirabilis LSI 4933; test: reference broth microdilution (rBMD); assay type: cell-based; conditions: Proteus mirabilis, LSI4933
# Method: as §5
# [14] = test system: P. mirabilis LSI 4698; test: reference broth microdilution (rBMD); assay type: cell-based; conditions: Proteus mirabilis, LSI4698
# [15] = test system: E. coli ATCC 25922; conditions: CLSI M100-Ed34E, cited from earlier work
# [16] = ATCC25922, Table 6, optimized BLAST, cutoff 0.8, read-out: MIC BLAST
# [17] = ATCC29213, Table 6, S. aureus ATCC 29213, optimized BLAST, cutoff 0.8, read-out: MIC BLAST
# [18] = ATCC25922, Table 8, isolates, 5 × 10^5 CFU/mL, read-out: MIC BLAST Isolates
# [19] = ATCC25922, Table 8, spiked urine sample, 5 × 10^5 CFU/mL, read-out: MIC BLAST Spiked Urine
# [20] = LSI770, Table 7, E. coli LSI 770, read-out: MIC BLAST
# [21] = ATCC29213, S. aureus ATCC 29213, 5×10^6 CFUs/mL, cutoff 0.8, FIGS. 19-21, read-out: BLAST MIC
# [22] = ATCC29213, Table 7, S. aureus ATCC 29213, read-out: MIC BLAST
# [23] = ATCC29213, Table 8, S. aureus ATCC 29213, isolates, 5 × 10^5 CFU/mL, read-out: MIC BLAST Isolates
# [24] = ATCC29213, Table 8, S. aureus ATCC 29213, spiked urine sample, 5 × 10^5 CFU/mL, read-out: MIC BLAST Spiked Urine
# [25] = ATCC29213, read-out: MIC BLAST, Table 6, S. aureus ATCC 29213, optimized BLAST, cutoff 0.8
structure (smiles),measurement,setting,value
"CO/N=C(\C(=O)N[C@@H]1C(=O)N2C(C(=O)O)=C(COC(N)=O)CS[C@H]12)c1ccco1 [Cefuroxime, cefuroxime]",MIC,[1]; [16],4 µg/mL
same,"S, I, R",[1],Susceptible
same,"S, I, R",[2]; S. aureus ATCC 29213,Susceptible
same,MIC,[2]; [17],0.25 µg/mL
same,MIC CLSI QC Range,[3],0.5 to 2 µg/mL
"CO/N=C(\C(=O)N[C@@H]1C(=O)N2C(C(=O)O)=C(CSc3nc(=O)c(=O)[nH]n3C)CS[C@H]12)c1csc(N)n1 [Ceftriaxone, ceftriaxone]","S, I, R",[1],Susceptible
same,"S, I, R",[2]; S. aureus ATCC 29213,Susceptible
same,MIC,[2]; [17],1 µg/mL
"C[C@@H](O)[C@H]1C(=O)N2C(C(=O)O)=C(S[C@@H]3CN[C@H](C(=O)N(C)C)C3)[C@H](C)[C@H]12 [Meropenem, meropenem]","S, I, R",[1],Susceptible
same,"S, I, R",[2]; S. aureus ATCC 29213,Susceptible
"CO[C@@]1(NC(=O)Cc2cccs2)C(=O)N2C(C(=O)O)=C(COC(N)=O)CS[C@@H]21 [Cefoxitin, cefoxitin]",MIC,[1]; [16],4 µg/mL
same,"S, I, R",[1],Susceptible
same,"S, I, R",[2]; S. aureus ATCC 29213,Susceptible
same,MIC,[2]; [17],1 µg/mL
"CC1(C)S[C@@H]2[C@H](NC(=O)[C@H](N)c3ccccc3)C(=O)N2[C@H]1C(=O)O [Ampicillin, ampicillin]",MIC,[1]; [16],4 µg/mL
same,"S, I, R",[1],Susceptible
same,"S, I, R",[2]; S. aureus ATCC 29213,Susceptible
same,MIC CLSI QC Range,[3],0.5 to 2 µg/mL
"Cc1nnc(SCC2=C(C(=O)O)N3C(=O)[C@@H](NC(=O)Cn4cnnn4)[C@H]3SC2)s1 [Cefazolin, cefazolin]",BLAST MIC,"[1]; 5×10^6 CFUs/mL, cutoff 0.8, FIGS. 16-18",2.0 µg/mL
same,MIC,[1]; [18],4.44 µg/mL
same,MIC,[1]; [19],1.11 µg/mL
same,"S, I, R",[1],Susceptible
same,"S, I, R",[4]; E. coli LSI 770,Resistant
same,MIC,"[4]; LSI770, read-out: MIC BLAST Isolates",> 142 µg/mL
same,MIC,"[4]; LSI770, read-out: MIC BLAST Spiked Urine",> 142 µg/mL
same,MIC,[4]; [20],> 142 µg/mL
same,MIC,[5],2 µg/mL
same,"S, I, R",[5],Susceptible
same,MIC,"[6]; Klebsiella pneumoniae, LSICT1045, Table 7",> 142 µg/mL
same,"S, I, R",[6],Resistant
same,MIC,[7],4.4 µg/mL
same,"S, I, R",[7],Susceptible
same,MIC,[8],4.4 µg/mL
same,"S, I, R",[8],Susceptible
same,BLAST MIC,"[2]; S. aureus ATCC 29213, FIG. 19",< 0.125 µg/mL
same,"S, I, R",[2]; S. aureus ATCC 29213,Susceptible
same,MIC,[2]; [21],< 0.125 µg/mL
same,MIC,[2]; [22],0.14 µg/mL
same,MIC,[2]; [23],0.14 µg/mL
same,MIC,[2]; [24],0.28 µg/mL
same,MIC,[2]; [25],0.125 µg/mL
same,MIC,[9],> 256 µg/mL
same,MIC,"[10]; Staphylococcus aureus, ATCC29213",0.5 µg/mL
same,MIC rBMD,"[10]; Table 8, S. aureus ATCC 29213, geometric mean MIC rounded to nearest 2-fold dilution, n = 3",0.5 µg/mL
same,MIC,[11],8 µg/mL
same,MIC,[12],> 256 µg/mL
same,MIC,[13],8 µg/mL
same,MIC,[14],16 µg/mL
"CC1=C(C(=O)O)N2C(=O)[C@@H](NC(=O)[C@H](N)c3ccccc3)[C@H]2SC1 [Cephalexin, cephalexin]",MIC,"[1]; ATCC25922, read-out: MIC BLAST, Table 6, optimized BLAST, cutoff 0.8",16 µg/mL
same,"S, I, R",[1],Susceptible
same,"S, I, R",[2]; S. aureus ATCC 29213,Susceptible
same,MIC,[2]; [25],1 µg/mL
same,MIC CLSI QC Range,[15],1.0 to 4.0 µg/mL
same,MIC CLSI QC Range,[3],0.25 to 1 µg/mL
"C[C@H]1c2cccc(O)c2C(=O)C2=C(O)[C@]3(O)C(=O)C(C(N)=O)=C(O)[C@@H](N(C)C)[C@@H]3[C@@H](O)[C@@H]21 [Doxycycline, doxycycline]",MIC,"[1]; ATCC25922, Table 7, read-out: MIC BLAST",0.14 µg/mL
same,MIC,[1]; [18],0.14 µg/mL
same,MIC,[1]; [19],0.28 µg/mL
same,"S, I, R",[1],Susceptible
same,"S, I, R",[4]; E. coli LSI 770,Resistant
same,MIC,[4]; [20],71 µg/mL
same,MIC,"[4]; LSI770, Table 8, E. coli LSI 770, isolates, 5 × 10^5 CFU/mL, read-out: MIC BLAST Isolates",71 µg/mL
same,MIC,"[4]; LSI770, Table 8, E. coli LSI 770, spiked urine sample, 5 × 10^5 CFU/mL, read-out: MIC BLAST Spiked Urine",71 µg/mL
same,MIC,[5],1 µg/mL
same,"S, I, R",[5],Susceptible
same,"S, I, R",[6],Resistant
same,MIC,[7],4.4 µg/mL
same,"S, I, R",[7],Susceptible
same,MIC,[8],1.1 µg/mL
same,"S, I, R",[8],Susceptible
same,"S, I, R",[2]; S. aureus ATCC 29213,Susceptible
same,MIC,[2]; [21],< 0.0625 µg/mL
same,MIC,[2]; [22],0.02 µg/mL
same,MIC,[2]; [23],0.02 µg/mL
same,MIC,[2]; [24],0.02 µg/mL
same,MIC,[9],64 µg/mL
same,MIC rBMD,"[9]; Table 8, E. coli LSI 770, geometric mean MIC rounded to nearest 2-fold dilution, n = 3",64 µg/mL
same,MIC,[11],2 µg/mL
same,MIC,[12],8 µg/mL
same,MIC,[13],4 µg/mL
same,MIC,[14],32 µg/mL
same,MIC CLSI QC Range,[15]; listed as doxycycline,0.5 to 2 µg/mL
same,MIC CLSI QC Range,[15],0.5 to 2.0 µg/mL
